Assay results published in patent US10857211B2, “Genomic instability markers in Fanconi anemia” (Children's Hospital Medical Center, priority 2014, dated 2020).
Entries after “also recorded” stand apart in the source; their conditions may differ.

Columns and labels:
FA-deficient SCC = test: Invasion of FA-deficient SCC, rescue by supplementation; type: cell-based
SCC1 cells [1] = test: Cell growth in culture, SCC1 cells; type: cell-based, human; conditions: for growth of FANCD2sh-treated SCC1 cells: NSC23766: 48 hours culture
SCC1 cells [2] = test: Matrigel-coated transwell invasion assay, SCC1 cells; type: cell-based, human; conditions: for invasion of FANCD2sh-treated SCC1 cells: Matrigel-coated transwells, 22 hours
Description: (§1) FIGS. 23A and B show a pathway loss promotes invasion of squamous tumor cells. Indicated cells were treated with the indicated shRNA vectors and then plated in Matrigel-coated transwells. After 22 hours, invasive cells were quantified.
After 22 hours, invasive cells were quantified. Representative images are shown. Experiments were carried out in duplicate, and standard deviation calculated.
FA pathway loss promoted motility and invasion. To assess motility and invasiveness of FA-deficient cells, the Matrigel cell invasion assay was used. […] To rule out off-target effects of the lentivirus, an shRNA-resistant EGFP-FANCD2 construct was introduced. The EGFP-FANCD2 fusion protein was expressed in GFP+ cells (but not GFP− cells), and was sufficient to block invasion of FANCD2sh-treated SCC1 cells (FIG. 23B). Similarly, FANCA and FANCJ knockdown stimulated invasion in SCC1 cells (FIG. 23C). […] Gains in cellular motility were also observed for normal oral keratinocytes (NOKS): 1.3% of NTsh normal oral keratinocytes (NOKS) cells plated were able to migrate through matrigel. This invasion frequency doubled upon FANCD2 knockdown, highlighting potential relevance for FA loss for the motility of normal cells (data not shown).

SCC1 cells [3] = test: Phalloidin staining, quantification of intercellular projections in SCC1 cells; type: cell-based, human; conditions: FANCD2sh- and FANCJsh SCC1 cells, phalloidin stain
Text: (§2) Percentages of cells in G2/M are indicated. […] Images were taken at the same magnification and exposure. […] Errors bars represent standard deviation; ** p<0.001; *** p<0.0001 (ANOVA).

pDNA-PKcs = target: T1, pDNA-PKcs (Homo sapiens, UniProt P78527); test: Western blot of pDNA-PKcs in SCC1 cells after bleomycin pulse; type: cell-based; conditions: 10 uM NU7026; 30-minute bleomycin pulse; FANCD2sh-, FANCJsh- and control (NTsh) SCC1 cells
T1 construct: Western blot analysis of NTsh-, FANCD2sh- and FANCJsh-treated SCC1 cells that were subjected to a 30-minute pulse of bleomycin; endogenous in cells; host or cells: UM-SCC1 (SCC1) HNSCC cells carrying NTsh, FANCD2sh or FANCJsh lentiviral shRNA
Text: DNA-PK/Rac1 signaling occurred in response to FA pathway loss and was required for cytoskeletal re-organization and invasion. […] These defects are accompanied, under some circumstances, by a corresponding increase in the activity of error-prone non-homologous end joining (NHEJ) pathway components (27-28). Repair by NHEJ requires activation of the catalytic subunit of DNA-dependent protein kinase (DNA-PKcs) and subsequent autophosphorylation on serine […] (pDNA-PKcs). The inventors first determined whether DNA-PKcs signaling was activated and involved in FA-associated invasion. FANCD2sh- and FANCJsh-treatment of SCC1 cells stimulated pDNA-PKcs.

Rac1 = test: Rac1-GTP pulldown assay in SCC1 cells; type: cell-based, human
Text: Members of the small GTPase Rho, Rac and CDC42 family of signaling molecules were key players in normal and transformed cell morphology, adhesion, motility, and invasion (46). […] Because Rac1 activation is reported to produce intercellular projections (47-48) similar to the ones noted in FA-deficient cells (FIG. 22E), the inventors carried out Rac1-GTP pull-downs to determine whether Rac1 is activated by FA pathway loss; FANCJsh SCC1 cells were used, since pDNA-PK activation in these cells was robust (FIG. 24A). […] To examine the requirement for Rac1 in cytoskeletal re-organization and invasion of FA-deficient cells, the specific Rac1 small molecule inhibitor NSC23766 was used (49-50). […] Thus, FA pathway loss leads to downstream activation of pDNA-PK and Rac1, and both are required for cytoskeletal rearrangements and invasion.

SCC47 cells [4] = test: Matrigel-coated transwell invasion assay, SCC47 cells; type: cell-based, human; conditions: 100 uM NB-DNJ, 48 hrs; NTsh, FANCD2sh, FANCJsh
Description: as §1
(§3) FIGS. 27I and J show NTsh-, FANCD2sh- and FANCJsh-treated SCC1 and SCC47 cells were cultured for 48 hrs in 100 uM NB-DNJ.
GM3 is the precursor of complex gangliosides (FIG. 27E), a key component of cell membranes, and enriched in lipid rafts (LRs). GM3 and its derivative GM1 localize to microdomains in apical epithelial membranes (68) and GM3 depletion was reported to blocked wound healing in diabetic mice (69). Further, GM3 was elevated in head and neck tumors (compared to adjacent normal tissue) (70) and in serum of HNSCC patients, and was predictive of tumor size and relapse (71). On the other hand, links between GM3 levels and FA have not yet been reported. Targeted analyses by UPLC-MS/MS in normal cutaneous (NIKS) and normal oral (NOKS) keratinocytes, as well as in UM-SCC1 cells verified GM3 regulation across the major carbohydrate component lengths (i.e., from d34:1 to d44:2) (FIG. 27F-H). […] To assess the functional significance of ganglioside accumulation in FA cells, the effect of a ganglioside synthesis inhibitor N-butyldeoxynojirimycin (NB-DNJ)72 was measured on invasion driven by FA pathway loss. […]

SCC47 cells [5] = test: Cell growth in culture, SCC47 cells; type: cell-based, human; conditions: NB-DNJ
GM3 = GM3 levels by targeted MS in NB-DNJ treated cells; type: cell-based, human; conditions: 100 uM NB-DNJ, 48 hrs; NTsh-, FANCD2sh- and FANCJsh-treated SCC1 and SCC47 cells
Description: as §3
GM3 is the precursor of complex gangliosides (FIG. 27E), a key component of cell membranes, and enriched in lipid rafts (LRs). GM3 and its derivative GM1 localize to microdomains in apical epithelial membranes (68) and GM3 depletion was reported to blocked wound healing in diabetic mice (69). Further, GM3 was elevated in head and neck tumors (compared to adjacent normal tissue) (70) and in serum of HNSCC patients, and was predictive of tumor size and relapse (71). On the other hand, links between GM3 levels and FA have not yet been reported. Targeted analyses by UPLC-MS/MS in normal cutaneous (NIKS) and normal oral (NOKS) keratinocytes, as well as in UM-SCC1 cells verified GM3 regulation across the major carbohydrate component lengths (i.e., from d34:1 to d44:2) (FIG. 27F-H). […] To assess the functional significance of ganglioside accumulation in FA cells, the effect of a ganglioside synthesis inhibitor N-butyldeoxynojirimycin (NB-DNJ)72 was measured on invasion driven by FA pathway loss. NTsh-, FANCD2sh- and FANCJsh-treated SCC1 and SCC47 cells were exposed to NB-DNJ (or vehicle), and subjected to Matrigel invasion assays (FIG. 23).

SCC1 cells [6] = test: Flow cytometry-based cell-cycle analysis after melphalan, SCC1 cells; design: species or system human; conditions: FANCD2-deficient SCC1 cells compared to NTsh
Text: as §2
FA pathway loss leads to cytoskeletal and membrane aberrations in HNSCC cells. A significant proportion of sporadic HNSCCs harbor somatic mutations in FA and FA-related genes (33). To test for biological effects of FA pathway loss, knockdown models of HNSCC were created using published lentiviral shRNA vectors (15, 41). First, the HPV-negative (UM-)SCC1 cell line was knocked down for FANCA, FANCD2, and FANCJ. Western blot analyses verified specific and efficient FA protein depletion (FIG. 22A). To verify that FANCD2 depletion induced classical FA phenotypes, DNA crosslinker sensitivity was quantified. […] This was similar to FA lymphoblasts and fibroblasts that also respond to melphalan with G2/M cell-cycle arrest (42-43). FANCA- and FANCJ-deficient SCC1 cells responded similarly, as did UMSCC6 and UMSCC47 HNSCC cell lines depleted for FA proteins (data not shown). Thus, FA knockdown in HPV-positive and -negative […] cells induced the classic FA DNA-crosslinker sensitivity phenotype.

O=c1c(O)c(-c2ccc(O)c(O)c2)oc2cc(O)cc(O)c12 [quercetin]
invasion of FA-deficient SCC (FA-deficient SCC): rescued

CCN(CC)CCCC(C)Nc1nc(C)cc(Nc2ccc3nc(C)cc(N)c3c2)n1 (centres unmarked) [NSC23766]
growth of FANCD2sh-treated SCC1 cells (SCC1 cells [1]): did not appear to affect growth
invasion of FANCD2sh-treated SCC1 cells (SCC1 cells [2]): suppressed cell invasion
invasion of control cells (SCC1 cells [2]; NTsh control SCC1 cells): did affect invasion of control cells
number of long intercellular projections (SCC1 cells [3]): reduced the number of long intercellular projections

Oc1ccc([C@H]2COc3cc(O)ccc3C2)cc1 [equol]
invasion of FA-deficient SCC (FA-deficient SCC): rescued

O=c1cc(N2CCOCC2)oc2c1ccc1ccccc12 [NU7026]
pDNA-PKcs level (Western blot) (pDNA-PKcs): undetectable pDNA-PKcs
active Rac1 (Rac1-GTP) in FA-deficient cells (Rac1; FANCJsh SCC1 cells): significantly lowered active Rac1
Rac1 activity in control cells (Rac1; NTsh control SCC1 cells): did not affect Rac1 activity
growth of FANCD2sh-treated SCC1 cells (SCC1 cells [1]): did not appear to affect growth
invasion of FANCD2sh-treated SCC1 cells (SCC1 cells [2]): suppressed invasion

CCCCN1C[C@H](O)[C@@H](O)[C@H](O)[C@H]1CO [NB-DNJ, N-butyldeoxynojirimycin]
invasion driven by FA loss, SCC47 cells (SCC47 cells [4]): selectively inhibited invasion driven by FA loss
growth of SCC1 cells (SCC1 cells [1]; NB-DNJ): did not affect the growth
growth of SCC47 cells (SCC47 cells [5]): did not affect the growth
GM3 levels (GM3): reduced GM3 levels; also recorded: successfully repressed GM3 levels
invasion driven by FA loss, SCC1 cells (SCC1 cells [2]; 100 uM NB-DNJ, 48 hrs, NTsh, FANCD2sh, FANCJsh): selectively inhibited invasion driven by FA loss

NeuACα2-3Galβ1-4Glcβ1-1ceramide [GM3]
invasion of SCC1 cells with GM3 in cell media (SCC1 cells [2]; GM3 50 uM): doubled the invasion
SCC1 invasion on GM3 addition to culture media (SCC1 cells [2]; particularly in FA-proficient cells, data not shown): stimulated SCC1 invasion

CC(C)CCC[C@@H](C)[C@H]1CC[C@H]2[C@@H]3CC=C4C[C@@H](O)CC[C@]4(C)[C@H]3CC[C@]12C [cholesterol]
invasion of FA-deficient SCC (FA-deficient SCC): rescued

N[C@@H](Cc1ccc(N(CCCl)CCCl)cc1)C(=O)O [melphalan]
proportion of cells in G2/M after melphalan (SCC1 cells [6]): increased proportion of cells in G2/M
